Here are results for 19 compounds from patent US9150566B2, “2-(1,2,3-triazol-2-yl)benzamide and 3-(1,2,3-triazol-2-YL)picolinamide derivatives as orexin receptor antagonists” (ACTELION PHARMACEUTICALS LTD., priority 2011, dated 2015).

One series addresses human orexin-2 receptor (Homo sapiens (Human), UniProt O43614). In words: In vitro intracellular calcium measurements (FLIPR), antagonistic activity on orexin-2 receptor. The series is classed as cell-based. The settings on record: CHO cells expressing human orexin-2 receptor; FLIPR; 3 nM orexin-A agonist; 120 min antagonist incubation; geometric mean if determined several times; read-out: IC50 OX2. The method in brief:
(§1)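 CHO cells expressing human orexin-1 or orexin-2 receptor were seeded overnight, preincubated with antagonist for 120 min, then stimulated with agonist in a FLIPR Tetra.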
(Calcium assays in cells follow changes in intracellular calcium, usually with a dye or a luminescent sensor.)

The next series addresses human orexin-1 receptor (Homo sapiens (Human), UniProt O43613). In words: In vitro intracellular calcium measurements (FLIPR), antagonistic activity on orexin-1 receptor. The class given is cell-based. The following applies: read-out: IC50 OX1. The method, boiled down: as §1
For another series, the target named is CYP3A4 (Homo sapiens (Human), UniProt P08684). In words: CYP3A4 inhibition assay (human liver microsomes, testosterone 6β-hydroxylation). The following applies: read-out: CYP3A4 IC50, 40 μM testosterone. (In general: Liver microsomes are a subcellular fraction often used to study metabolism.)
Sequence of CYP3A4 (P08684 whole entry): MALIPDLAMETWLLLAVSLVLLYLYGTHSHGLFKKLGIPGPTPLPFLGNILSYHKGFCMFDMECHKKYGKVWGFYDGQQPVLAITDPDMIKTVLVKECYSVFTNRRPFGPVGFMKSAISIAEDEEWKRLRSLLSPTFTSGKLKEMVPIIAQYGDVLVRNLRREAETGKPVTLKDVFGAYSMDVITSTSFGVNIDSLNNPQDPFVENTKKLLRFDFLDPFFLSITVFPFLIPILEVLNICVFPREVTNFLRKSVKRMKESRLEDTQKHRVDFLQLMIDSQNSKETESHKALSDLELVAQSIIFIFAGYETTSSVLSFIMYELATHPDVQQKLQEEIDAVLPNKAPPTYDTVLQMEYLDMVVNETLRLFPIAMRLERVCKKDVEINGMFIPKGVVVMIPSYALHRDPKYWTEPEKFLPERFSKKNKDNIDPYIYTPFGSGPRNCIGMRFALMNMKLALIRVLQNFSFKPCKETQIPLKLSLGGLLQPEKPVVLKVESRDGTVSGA
The mark [1] stands for this setting: CHO cells expressing human orexin-1 receptor, FLIPR, 3 nM orexin-A agonist, 120 min antagonist incubation, geometric mean if determined several times.

Where two headings read alike, the source gives them in different places.

Sequence of human orexin-1 receptor (O43613 whole entry): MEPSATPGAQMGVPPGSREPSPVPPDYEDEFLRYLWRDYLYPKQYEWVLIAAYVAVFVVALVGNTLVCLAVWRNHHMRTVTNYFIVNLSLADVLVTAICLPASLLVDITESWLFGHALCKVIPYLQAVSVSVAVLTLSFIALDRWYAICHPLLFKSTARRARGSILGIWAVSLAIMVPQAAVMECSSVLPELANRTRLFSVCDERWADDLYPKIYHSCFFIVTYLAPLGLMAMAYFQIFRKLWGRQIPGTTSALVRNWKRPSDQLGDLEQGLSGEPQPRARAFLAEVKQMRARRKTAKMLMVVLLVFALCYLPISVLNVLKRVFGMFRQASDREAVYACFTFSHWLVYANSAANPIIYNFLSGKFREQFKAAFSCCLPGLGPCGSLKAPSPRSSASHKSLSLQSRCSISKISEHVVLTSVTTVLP
Sequence of human orexin-2 receptor (O43614 whole entry): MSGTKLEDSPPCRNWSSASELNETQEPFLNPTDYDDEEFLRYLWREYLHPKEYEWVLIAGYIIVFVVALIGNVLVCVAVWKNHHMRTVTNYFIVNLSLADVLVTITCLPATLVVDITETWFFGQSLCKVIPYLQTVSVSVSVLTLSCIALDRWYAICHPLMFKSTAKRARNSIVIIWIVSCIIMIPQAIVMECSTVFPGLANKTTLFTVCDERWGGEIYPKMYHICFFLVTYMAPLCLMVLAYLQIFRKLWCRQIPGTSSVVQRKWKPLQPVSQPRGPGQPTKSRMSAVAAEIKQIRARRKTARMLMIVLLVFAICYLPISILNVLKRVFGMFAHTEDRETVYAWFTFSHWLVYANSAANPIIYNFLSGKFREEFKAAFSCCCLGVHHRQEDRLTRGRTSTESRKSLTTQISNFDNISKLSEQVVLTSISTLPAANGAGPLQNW

For the compound `O=C(c1cc(Cl)ccc1-n1nccn1)N1CCOC[C@H]1Cc1cc(-c2ncccn2)ccc1F` [Example 159, (5-Chloro-2-[1,2,3]triazol-2-yl-phenyl)-[(R)-3-(2-fluoro-5-pyrimidin-2-yl-benzyl)-morpholin-4-yl]-methanone], the IC50 (as a rule, the point on the concentration scale where inhibition reaches its midpoint) at human orexin-2 receptor is 490 nM; at human orexin-1 receptor (setting [1]), 6 nM; at CYP3A4 it was 17000 nM.
For `Cc1ccc(C(=O)N2CCOC[C@H]2Cc2cccc(-c3ncon3)c2)c(-n2nccn2)c1` [Example 81, (4-Methyl-2-[1,2,3]triazol-2-yl-phenyl)-[(R)-3-(3-[1,2,4]oxadiazol-3-yl-benzyl)-morpholin-4-yl]-methanone] the same measures were 212 nM, 2 nM and 33000 nM.
For `Cc1ccc(C[C@@H]2COCCN2C(=O)c2ccccc2-n2nccn2)cc1-c1nccs1` [Example 193, [(R)-3-(4-Methyl-3-thiazol-2-yl-benzyl)-morpholin-4-yl]-(2-[1,2,3]triazol-2-yl-phenyl)-methanone] the same measures were 238 nM, 1 nM and 600 nM.
For `COc1ccc(C[C@@H]2COCCN2C(=O)c2ccccc2-n2nccn2)cc1-n1cccn1` [Example 14, [(R)-3-(4-Methoxy-3-pyrazol-1-yl-benzyl)-morpholin-4-yl]-(2-[1,2,3]triazol-2-yl-phenyl)-methanone] the same measures were 905 nM, 3 nM and greater than 50000 nM.
Take `O=C(c1cccc(Cl)c1-n1nccn1)N1CCOC[C@H]1Cc1cc(-n2nccn2)ccc1F` [Example 135, (3-Chloro-2-[1,2,3]triazol-2-yl-phenyl)-[(R)-3-(2-fluoro-5-[1,2,3]triazol-2-yl-benzyl)-morpholin-4-yl]-methanone]: the half-maximal inhibitory concentration (IC50) is 1880 nM on human orexin-2 receptor, 16 nM on human orexin-1 receptor (setting [1]) and 30000 nM at CYP3A4.
`C[C@@H]1CN(C(=O)c2cc(Cl)ccc2-n2nccn2)[C@H](Cc2cccc(-n3nccn3)c2)CO1` [Example 184, (5-Chloro-2-[1,2,3]triazol-2-yl-phenyl)-[(2R,5R)-2-methyl-5-(3-[1,2,3]triazol-2-yl-benzyl)-morpholin-4-yl]-methanone]: the results for the IC50 on human orexin-2 receptor, at human orexin-1 receptor (setting [1]) and at CYP3A4 were 96 nM, 2 nM and 19000 nM, respectively.
For `COc1ccc(C[C@@H]2COCCN2C(=O)c2ccccc2-n2nccn2)cc1-c1cnccn1` [Example 6] the same measures were 1940 nM, 12 nM and 26000 nM.
In the case of `COc1ccc(C[C@@H]2COCCN2C(=O)c2ccccc2-n2nccn2)cc1-c1ncco1` [Example 9, [(R)-3-(4-Methoxy-3-oxazol-2-yl-benzyl)-morpholin-4-yl]-(2-[1,2,3]triazol-2-yl-phenyl)-methanone], the IC50 at human orexin-2 receptor worked out at 468 nM; on human orexin-1 receptor (setting [1]), 2 nM; at CYP3A4, 8400 nM.
For `C[C@@H]1CN(C(=O)c2ccc(Cl)cc2-n2nccn2)[C@H](Cc2cc(-n3nccn3)ccc2F)CO1` [Example 187, (4-Chloro-2-[1,2,3]triazol-2-yl-phenyl)-[(2R,5R)-5-(2-fluoro-5-[1,2,3]triazol-2-yl-benzyl)-2-methyl-morpholin-4-yl]-methanone] the same measures were 58 nM, 6 nM and 14000 nM.
With `Cc1ccc(C(=O)N2CCOC[C@H]2Cc2cc(F)cc(-n3nccn3)c2)c(-n2nccn2)c1` [Example 146, [(R)-3-(3-Fluoro-5-[1,2,3]triazol-2-yl-benzyl)-morpholin-4-yl]-(4-methyl-2-[1,2,3]triazol-2-yl-phenyl)-methanone], the results for the IC50 on human orexin-2 receptor, at human orexin-1 receptor and on CYP3A4 were 282 nM, 3 nM and 40000 nM, respectively.
`O=C(c1cccc(F)c1-n1nccn1)N1CCOC[C@H]1Cc1cccc(-n2nccn2)c1` [Example 54, (3-Fluoro-2-[1,2,3]triazol-2-yl-phenyl)-[(R)-3-(3-[1,2,3]triazol-2-yl-benzyl)-morpholin-4-yl]-methanone]: the IC50 on human orexin-2 receptor is 1820 nM; on human orexin-1 receptor (setting [1]), 46 nM; at CYP3A4, greater than 50000 nM.
With `Cc1ccc(C(=O)N2C[C@@H](C)OC[C@H]2Cc2cc(-n3nccn3)ccc2F)c(-n2nccn2)c1` [Example 117, [(2R,5R)-5-(2-Fluoro-5-[1,2,3]triazol-2-yl-benzyl)-2-methyl-morpholin-4-yl]-(4-methyl-2-[1,2,3]triazol-2-yl-phenyl)-methanone], the IC50 worked out at 107 nM on human orexin-2 receptor, 5 nM on human orexin-1 receptor (setting [1]) and 23000 nM on CYP3A4.
On to `COc1cc(C(=O)N2CCOC[C@H]2Cc2cccc(-n3nccn3)c2)c(-n2nccn2)cc1OC` [Example 34, (4,5-Dimethoxy-2-[1,2,3]triazol-2-yl-phenyl)-[(R)-3-(3-[1,2,3]triazol-2-yl-benzyl)-morpholin-4-yl]-methanone], for which the values for the IC50 at human orexin-2 receptor, at human orexin-1 receptor (setting [1]) and on CYP3A4 were 1230 nM, 5 nM and greater than 50000 nM, respectively.
For `O=C(c1ccccc1-n1nccn1)N1CCOC[C@H]1Cc1ccc(Cl)c(-c2ncon2)c1` [Example 90, [(R)-3-(4-Chloro-3-[1,2,4]oxadiazol-3-yl-benzyl)-morpholin-4-yl]-(2-[1,2,3]triazol-2-yl-phenyl)-methanone] the same measures were 475 nM, 12 nM and 21000 nM.
For `Cc1ccc(-n2nccn2)c(C(=O)N2CCOC[C@H]2Cc2cccc(-c3cccnn3)c2)c1` [Example 47, (5-Methyl-2-[1,2,3]triazol-2-yl-phenyl)-[(R)-3-(3-pyridazin-3-yl-benzyl)-morpholin-4-yl]-methanone] the same measures were 2380 nM, 13 nM and 6000 nM.
For `O=C(c1cc(Cl)ccc1-n1nccn1)N1CCOC[C@H]1Cc1cc(-c2ncon2)ccc1F` [Example 176, (5-Chloro-2-[1,2,3]triazol-2-yl-phenyl)-[(R)-3-(2-fluoro-5-[1,2,4]oxadiazol-3-yl-benzyl)-morpholin-4-yl]-methanone], the IC50 was 240 nM at human orexin-2 receptor, 11 nM on human orexin-1 receptor (setting [1]) and 22000 nM at CYP3A4.
For `CC[C@@H]1CN(C(=O)c2cc(C)ccc2-n2nccn2)[C@H](Cc2cccc(-n3nccn3)c2)CO1` [Example 142, [(2R,5R)-2-Ethyl-5-(3-[1,2,3]triazol-2-yl-benzyl)-morpholin-4-yl]-(5-methyl-2-[1,2,3]triazol-2-yl-phenyl)-methanone] the same measures were 287 nM, 5 nM and 9200 nM.
For `Cc1ccc(-n2nccn2)c(C(=O)N2CCOC[C@H]2Cc2cccc(-c3ncccn3)c2)c1` [Example 17, (5-Methyl-2-[1,2,3]triazol-2-yl-phenyl)-[(R)-3-(3-pyrimidin-2-yl-benzyl)-morpholin-4-yl]-methanone], in that order: 396 nM, 2 nM and 33000 nM.
As to `O=C(c1ccccc1-n1nccn1)N1CCOC[C@H]1Cc1cccc(-c2cccnn2)c1` [Example 48, [(R)-3-(3-Pyridazin-3-yl-benzyl)-morpholin-4-yl]-(2-[1,2,3]triazol-2-yl-phenyl)-methanone], the results for the IC50 at human orexin-2 receptor, at human orexin-1 receptor (setting [1]) and on CYP3A4 were 4440 nM, 39 nM and 9600 nM, respectively.
